Converted amounts (≈) assume the structure as drawn.
Assays:
A. faecalis ATCC 8750 = assay: MIC, serial agar dilution method; assay type: cell-based; conditions: nutrient agar pH 7, overnight 37° C.
Method: (§1) Antimicrobial activity of BBM-928 components was determined against a variety of bacteria and fungi by serial agar dilution method in nutrient agar at pH 7 using Steer's multi-inoculating apparatus. The inoculum size was standardized to apply a 0.0025-ml aliquot of test organisms containing approximately 10^4 cell/ml for all bacteria and fungi except acid-fast bacteria for which a 10^6 cell/ml suspension was used.

B. megaterium D2 = assay: MIC, serial agar dilution method; assay type: cell-based; conditions: nutrient agar pH 7, overnight 37° C.
Method: as §1

B. subtilis PCI 219 = assay: MIC, serial agar dilution method; assay type: cell-based; conditions: nutrient agar pH 7, overnight 37° C.
Method: as §1

C. arbicans IAM 4888 = assay: MIC, serial agar dilution method; assay type: cell-based; conditions: nutrient agar pH 7, overnight 37° C.
Method: as §1

C. neoformans = assay: MIC, serial agar dilution method; assay type: cell-based; conditions: nutrient agar pH 7, overnight 37° C.
Method: as §1

C. xerosis 53K-1 = assay: MIC, serial agar dilution method; assay type: cell-based; conditions: nutrient agar pH 7, overnight 37° C.
Method: as §1

E. coli NIHJ = assay: MIC, serial agar dilution method; assay type: cell-based; conditions: nutrient agar pH 7, overnight 37° C.
Method: as §1

K. pneumoniae D-11 = assay: MIC, serial agar dilution method; assay type: cell-based; conditions: nutrient agar pH 7, overnight 37° C.
Method: as §1

M. flavus D12 = assay: MIC, serial agar dilution method; assay type: cell-based; conditions: nutrient agar pH 7, overnight 37° C.
Method: as §1

M. phlei D88 = assay: MIC, serial agar dilution method; assay type: cell-based; conditions: nutrient agar pH 7, overnight 37° C., 10^6 cell/ml inoculum
Method: as §1

M. smegmatis 607 D87 = assay: MIC, serial agar dilution method; assay type: cell-based; conditions: nutrient agar pH 7, overnight 37° C., 10^6 cell/ml inoculum
Method: as §1

P. aeruginosa A9930 = assay: MIC, serial agar dilution method; assay type: cell-based; conditions: nutrient agar pH 7, overnight 37° C.
Method: as §1

P. mirabilis A9554 = assay: MIC, serial agar dilution method; assay type: cell-based; conditions: nutrient agar pH 7, overnight 37° C.
Method: as §1

P. morganii A9553 = assay: MIC, serial agar dilution method; assay type: cell-based; conditions: nutrient agar pH 7, overnight 37° C.
Method: as §1

P. vulgaris A9436 = assay: MIC, serial agar dilution method; assay type: cell-based; conditions: nutrient agar pH 7, overnight 37° C.
Method: as §1

S. aureus 209P = assay: MIC, serial agar dilution method; assay type: cell-based; conditions: nutrient agar pH 7, overnight 37° C.
Method: as §1

S. lutea PCI 1001 = assay: MIC, serial agar dilution method; assay type: cell-based; conditions: nutrient agar pH 7, overnight 37° C.
Method: as §1

S. marcescens A20019 = assay: MIC, serial agar dilution method; assay type: cell-based; conditions: nutrient agar pH 7, overnight 37° C.
Method: as §1

S. pyogenes S-23 = assay: MIC, serial agar dilution method; assay type: cell-based; conditions: nutrient agar pH 7, overnight 37° C.
Method: as §1

B. anthracis A9504 = assay type: cell-based; conditions: nutrient agar pH 7, overnight 37° C.
lysogenic bacterium = assay: Prophage induction in lysogenic bacterium (ILB); assay type: cell-based; conditions: up to a concentration of 100 mcg./ml
Method: The activity of prophage induction in lysogenic bacterium (ILB) was determined for BBM-928 components.

B16 melamoma = assay: Antitumor activity, intraperitoneally implanted tumor; assay type: in vivo, mouse
Method: (§2) Comparative testing of BBM-928 components A, B, C and D with mitomycin C for antitumor activity was carried out with the intraperitoneally implanted tumors: P388 leukemia, L1210 leukemia, B16 melamoma, Lewis Lung (LL) carcinoma, and sarcoma 180 ascites (S180). […] By varying dosage, the minimum effective dose (MED) was determined which provided a median survival time value for the treated animals at least 1.25 times greater than a control group. This level of activity is considered to be a measure of significant antitumor activity. […] Expt. Path.

L1210 leukemia = assay: as above; assay type: in vivo, mouse
Method: as §2

[1] = tested on: Lewis Lung (LL) carcinoma; assay: as above; assay type: in vivo, mouse
Method: as §2

P388 leukemia = assay: as above; assay type: in vivo, mouse
Method: as §2

[2] = tested on: sarcoma 180 ascites (S180); assay: as above; assay type: in vivo, mouse
Method: as §2

[3] = Intraperitoneal LD50, method of Van der Waerden
[4] = daily treatments from day 1 to day 9
[5] = single treatment on day 1, median survival time at least 1.25 times control

COc1ccc2nc(C(=O)N[C@@H]3COC(=O)[C@H](C(C)(C)O)N(C)C(=O)CN(C)C(=O)CNC(=O)[C@@H]4[C@@H](OC(C)=O)CC=NN4C(=O)[C@H](NC(=O)c4nc5ccc(OC)cc5cc4O)COC(=O)[C@H](C(C)(C)O)N(C)C(=O)CN(C)C(=O)CNC(=O)[C@@H]4[C@@H](OC(C)=O)CC=NN4C3=O)c(O)cc2c1 [BBM-928A] showed an MIC (A. faecalis ATCC 8750) of over 100 µg/mL, an MIC (B. megaterium D2) of 25 µg/mL (≈ 17.5 µM) and an MIC (B. subtilis PCI 219) of 25 µg/mL (≈ 17.5 µM). The MIC (C. arbicans IAM 4888) was over 100 µg/mL, the MIC (C. neoformans) was 100 µg/mL (≈ 70.1 µM) and the MIC (C. xerosis 53K-1) was 25 µg/mL (≈ 17.5 µM). The MIC (E. coli NIHJ) was over 100 µg/mL, the MIC (K. pneumoniae D-11) was over 100 µg/mL and the MIC (M. flavus D12) was 12.5 µg/mL (≈ 8.76 µM). It also gave an MIC (M. phlei D88) of 12.5 µg/mL (≈ 8.76 µM), an MIC (M. smegmatis 607 D87) of 25 µg/mL (≈ 17.5 µM) and an MIC (P. aeruginosa A9930) of over 100 µg/mL. For the same molecule, the MIC (P. mirabilis A9554) was over 100 µg/mL, the MIC (P. morganii A9553) was over 100 µg/mL and the MIC (P. vulgaris A9436) was over 100 µg/mL. The MIC (S. aureus 209P) was 12.5 µg/mL (≈ 8.76 µM), the MIC (S. lutea PCI 1001) was 6.3 µg/mL (≈ 4.41 µM) and the MIC (S. marcescens A20019) was over 100 µg/mL. The MIC (S. pyogenes S-23) was 6.3 µg/mL (≈ 4.41 µM), the MIC (B. anthracis A9504) was 6.3 µg/mL (≈ 4.41 µM) and the “ILB activity (prophage induction in lysogenic bacterium)” value (“ILB activity” below) (lysogenic bacterium) was “No significant ILB activity”. The “Activity Ratio (BBM-928A vs. Mitomycin C)” value (“Activity Ratio” below) (B16 melamoma; [4]) was 100, the “Minimum Effective Dose (MED)” value (B16 melamoma; [4]) was 0.003 mg/kg/day and the “Activity Ratio” value (B16 melamoma; single treatment on day 1) was 300. The “Minimum Effective Dose (MED)” value (B16 melamoma; [5]) was 0.003 mg/kg/day, the “Activity Ratio” value (L1210 leukemia; [4]) was 100 and the “Minimum Effective Dose (MED)” value (L1210 leukemia; [4]) was 0.003 mg/kg/day. The “Minimum Effective Dose (MED)” value (L1210 leukemia; [5]) was over 0.1 mg/kg/day, the “Activity Ratio” value [1, 4] was 100 and the “Minimum Effective Dose (MED)” value [1, 4] was 0.003 mg/kg/day. For the same molecule, the “Activity Ratio” value ([1]; single treatment on day 1) was 10, the “Minimum Effective Dose (MED)” value [1, 5] was 0.03 mg/kg/day and the “Activity Ratio” value (P388 leukemia; [4]) was 100. For the same molecule, the “Minimum Effective Dose (MED)” value (P388 leukemia; [4]) was 0.001 mg/kg/day, the “Activity Ratio” value (P388 leukemia; single treatment on day 1) was 30 and the “Minimum Effective Dose (MED)” value (P388 leukemia; [5]) was 0.003 mg/kg/day. For the same molecule, the “Activity Ratio” value [2, 4] was 100, the “Minimum Effective Dose (MED)” value [2, 4] was 0.0001 mg/kg/day and the “Activity Ratio” value ([2]; single treatment on day 1) was 100. For the same molecule, the “Minimum Effective Dose (MED)” value [2, 5] was 0.003 mg/kg/day, the “LD50, i.p.” value [3, 4] was 0.013 mg/kg/day and the “LD50, i.p.” value ([3]; single treatment on day 1) was 0.13 mg/kg/day.
In the case of COc1ccc2nc(C(=O)N[C@@H]3COC(=O)[C@H](C(C)(C)O)N(C)C(=O)CN(C)C(=O)CNC(=O)[C@@H]4[C@@H](O)CC=NN4C(=O)[C@H](NC(=O)c4nc5ccc(OC)cc5cc4O)COC(=O)[C@H](C(C)(C)O)N(C)C(=O)CN(C)C(=O)CNC(=O)[C@@H]4[C@@H](OC(C)=O)CC=NN4C3=O)c(O)cc2c1 [BBM-928B], the MIC (A. faecalis ATCC 8750) is reported as over 100 µg/mL, the MIC (B. megaterium D2) is reported as 25 µg/mL (≈ 18 µM) and the MIC (B. subtilis PCI 219) is reported as 25 µg/mL (≈ 18 µM). The MIC (C. arbicans IAM 4888) was over 100 µg/mL, the MIC (C. neoformans) was over 100 µg/mL and the MIC (C. xerosis 53K-1) was 50 µg/mL (≈ 36.1 µM). It also gave an MIC (E. coli NIHJ) of over 100 µg/mL, an MIC (K. pneumoniae D-11) of over 100 µg/mL and an MIC (M. flavus D12) of 25 µg/mL (≈ 18 µM). For the same molecule, the MIC (M. phlei D88) was 12.5 µg/mL (≈ 9.02 µM), the MIC (M. smegmatis 607 D87) was 25 µg/mL (≈ 18 µM) and the MIC (P. aeruginosa A9930) was over 100 µg/mL. It also gave an MIC (P. mirabilis A9554) of over 100 µg/mL, an MIC (P. morganii A9553) of over 100 µg/mL and an MIC (P. vulgaris A9436) of over 100 µg/mL. The MIC (S. aureus 209P) was 25 µg/mL (≈ 18 µM), the MIC (S. lutea PCI 1001) was 12.5 µg/mL (≈ 9.02 µM) and the MIC (S. marcescens A20019) was over 100 µg/mL. The MIC (S. pyogenes S-23) was 12.5 µg/mL (≈ 9.02 µM), the MIC (B. anthracis A9504) was 12.5 µg/mL (≈ 9.02 µM) and the “ILB activity” value (lysogenic bacterium) was “No significant ILB activity”. The “Minimum Effective Dose (MED)” value (P388 leukemia; [5]) was 0.1 mg/kg/day and the “LD50, i.p.” value ([3]; single treatment on day 1) was 0.18 mg/kg/day.
Work on COc1ccc2nc(C(=O)N[C@@H]3COC(=O)[C@H](C(C)(C)O)N(C)C(=O)CN(C)C(=O)CNC(=O)[C@@H]4[C@@H](O)CC=NN4C(=O)[C@H](NC(=O)c4nc5ccc(OC)cc5cc4O)COC(=O)[C@H](C(C)(C)O)N(C)C(=O)CN(C)C(=O)CNC(=O)[C@@H]4[C@@H](O)CC=NN4C3=O)c(O)cc2c1 [BBM-928C] yielded an MIC (A. faecalis ATCC 8750) of over 100 µg/mL, an MIC (B. megaterium D2) of 50 µg/mL (≈ 37.2 µM) and an MIC (B. subtilis PCI 219) of 100 µg/mL (≈ 74.4 µM). For the same molecule, the MIC (C. arbicans IAM 4888) was over 100 µg/mL, the MIC (C. neoformans) was 100 µg/mL (≈ 74.4 µM) and the MIC (C. xerosis 53K-1) was over 100 µg/mL. The MIC (E. coli NIHJ) was over 100 µg/mL, the MIC (K. pneumoniae D-11) was over 100 µg/mL and the MIC (M. flavus D12) was 50 µg/mL (≈ 37.2 µM). For the same molecule, the MIC (M. phlei D88) was 12.5 µg/mL (≈ 9.31 µM), the MIC (M. smegmatis 607 D87) was 25 µg/mL (≈ 18.6 µM) and the MIC (P. aeruginosa A9930) was over 100 µg/mL. The MIC (P. mirabilis A9554) was over 100 µg/mL, the MIC (P. morganii A9553) was over 100 µg/mL and the MIC (P. vulgaris A9436) was over 100 µg/mL. It also gave an MIC (S. aureus 209P) of 50 µg/mL (≈ 37.2 µM), an MIC (S. lutea PCI 1001) of 50 µg/mL (≈ 37.2 µM) and an MIC (S. marcescens A20019) of over 100 µg/mL. The MIC (S. pyogenes S-23) was 25 µg/mL (≈ 18.6 µM), the MIC (B. anthracis A9504) was 25 µg/mL (≈ 18.6 µM) and the “ILB activity” value (lysogenic bacterium) was “No significant ILB activity”. The “LD50, i.p.” value ([3]; single treatment on day 1) was 0.81 mg/kg/day.
In the case of CO[C@@]12[C@H](COC(N)=O)C3=C(C(=O)C(C)=C(N)C3=O)N1C[C@@H]1N[C@@H]12 [Mitomycin C, reference compound], the “Minimum Effective Dose (MED)” value (B16 melamoma; [4]) is reported as 0.3 mg/kg/day, the “Minimum Effective Dose (MED)” value (B16 melamoma; [5]) is reported as 1 mg/kg/day and the “Minimum Effective Dose (MED)” value (L1210 leukemia; [4]) is reported as 0.3 mg/kg/day. For the same molecule, the “Minimum Effective Dose (MED)” value (L1210 leukemia; [5]) was 3 mg/kg/day, the “Minimum Effective Dose (MED)” value [1, 4] was 0.3 mg/kg/day and the “Minimum Effective Dose (MED)” value [1, 5] was 0.3 mg/kg/day. For the same molecule, the “Minimum Effective Dose (MED)” value (P388 leukemia; [4]) was 0.1 mg/kg/day, the “Minimum Effective Dose (MED)” value (P388 leukemia; [5]) was 0.1 mg/kg/day and the “Minimum Effective Dose (MED)” value [2, 4] was 0.03 mg/kg/day. The “Minimum Effective Dose (MED)” value [2, 5] was 0.3 mg/kg/day.

Source: patent US4360458A, “Antitumor antibacterial agents” (priority 1980, dated 1982)
